Test results taken from patent publication US20240279201A1, “DUAL WNT SIGNALING PATHWAY INHIBITORS AND AMPK ACTIVATORS FOR TREATMENTS OF DISEASE” (priority 2021, published 2024).

What was measured:
[1] = tested on: Wnt/β-Catenin signaling pathway; test: Wnt signaling luciferase (TOPflash) reporter gene assay; assay type: cell-based; conditions: for IC50: luciferase reporter gene assay, mean of three independent experiments, read-out: IC50 (nM) to inhibit the Wnt signaling activity
Source text: A dual-luciferase gene reporter assay was used to test inhibitory activities of new compounds on Wnt signaling. […] Therefore, the effects of new compounds on AMPK was examined. […]

[2] = Cytotoxicity (CC50) during the luciferase gene reporter assay; assay type: cell-based; conditions: human, HEK293 cells; short treatment duration of the luciferase gene reporter assay

Compound	inhibition at 1 µM [1] [%]	IC50 [1] [nM]	CC50 [2] [nM]
Cc1c(C(=O)Nc2nc3ccccc3s2)nnn1-c1ccccc1Cl [YA6027, N-(Benzo[d]thiazol-2-yl)-1-(2-chlorophenyl)-5-methyl-1H-1,2,3-triazole-4-carboxamide]	98	0.8	> 92000
Cc1ccccc1-n1nnc(C(=O)Nc2nc3ccc(F)cc3s2)c1C [YA4103, N-(6-Fluorobenzo[d]thiazol-2-yl)-5-methyl-1-(o-tolyl)-1H-1,2,3-triazole-4-carboxamide]		4	> 92000
Cc1ccccc1-n1nnc(C(=O)Nc2nc3ccc(Br)cc3s2)c1C [YA4059, N-(6-Bromobenzo[d]thiazol-2-yl)-5-methyl-1-(o-tolyl)-1H-1,2,3-triazole-4-carboxamide]	31	> 1000	> 92000
COc1ccccc1-n1nnc(C(=O)Nc2ccc3ccccc3n2)n1 [YA70034, 2-(2-Methoxyphenyl)-N-(quinolin-2-yl)-2H-tetrazole-5-carboxamide]		> 1000	> 92000
COc1ccccc1-n1nnc(C(=O)Nc2cnc3ccccc3n2)c1C [YA6136, 1-(2-Methoxyphenyl)-5-methyl-N-(quinoxalin-2-yl)-1H-1,2,3-triazole-4-carboxamide]		1.8	> 92000
Cc1ccccc1-n1nnc(C(=O)Nc2nc(-c3ccccn3)cs2)c1C [YA4173]	7	> 1000	> 92000
Cc1ccc2nc(NC(=O)c3nnn(-c4ccccc4C)c3C)sc2c1 [YA4069, 5-Methyl-N-(6-methylbenzo[d]thiazol-2-yl)-1-(o-tolyl)-1H-1,2,3-triazole-4-carboxamide]		15	> 92000
Cc1ccccc1-n1nnc(C(=O)Nc2nc3cc(Br)ccc3s2)c1C [YA4047, N-(5-Bromobenzo[d]thiazol-2-yl)-5-methyl-1-(o-tolyl)-1H-1,2,3-triazole-4-carboxamide]	14	> 1000	> 92000
Cc1c(C(=O)Nc2cnc3ccccc3n2)nnn1-c1ccccc1 [YA6141, 5-Methyl-1-phenyl-N-(quinoxalin-2-yl)-1H-1,2,3-triazole-4-carboxamide]		1.7	> 92000
Cc1ccccc1-n1nnc(C(=O)Nc2nc(-c3ccccc3F)cs2)c1C [YA4143]		> 1000	> 92000
Cc1ccccc1-n1nnc(C(=O)Nc2cccc3cccnc23)c1C [YA6055, 5-Methyl-N-(quinolin-8-yl)-1-(o-tolyl)-1H-1,2,3-triazole-4-carboxamide]		> 1000	> 92000
O=C(Nc1nc2ccccc2s1)c1nnn(-c2ccccc2F)c1C(F)(F)F [YA6168, N-(Benzo[d]thiazol-2-yl)-1-(2-fluorophenyl)-5-(trifluoromethyl)-1H-1,2,3-triazole-4-carboxamide]	91	3.3	> 92000
O=C(Nc1ccc2ccccc2n1)c1nnn(-c2ccccc2F)n1 [YA70032, 2-(2-Fluorophenyl)-N-(quinolin-2-yl)-2H-tetrazole-5-carboxamide]		> 1000	> 92000
CCc1c(C(=O)Nc2nc3ccc(F)cc3s2)nnn1-c1ccccc1F [YA4165, 5-Ethyl-N-(6-fluorobenzo[d]thiazol-2-yl)-1-(2-fluorophenyl)-1H-1,2,3-triazole-4-carboxamide]		0.5	> 92000
Cc1ccccc1-n1nnc(C(=O)Nc2nc(-c3ccccc3Cl)cs2)c1C [YA4145]		> 1000	> 92000
CCc1c(C(=O)Nc2nc3ccccc3s2)cnn1-c1ccccc1 [YA6143, N-(Benzo[d]thiazol-2-yl)-5-ethyl-1-phenyl-1H-pyrazole-4-carboxamide]		3.6	> 92000
Cc1c(C(=O)Nc2nc3ccccc3s2)nnn1-c1ccccc1OC(F)(F)F [YA1038, N-(Benzo[d]thiazol-2-yl)-5-methyl-1-(2-(trifluoromethoxy)phenyl)-1H-1,2,3-triazole-4-carboxamide]	37	> 1000	> 92000
Cc1ccccc1-n1nnc(C(=O)Nc2nc3cc(F)ccc3s2)c1C [YA4101, N-(5-Fluorobenzo[d]thiazol-2-yl)-5-methyl-1-(o-tolyl)-1H-1,2,3-triazole-4-carboxamide]		16	> 92000
Cc1cc(C(=O)Nc2nc3ccccc3s2)c(C)n1-c1ccccc1 [YA4136]		> 1000	> 92000
Cc1c(C(=O)Nc2nc3ccccc3s2)nnn1-c1ccccc1Br [YA4003, N-(Benzo[d]thiazol-2-yl)-1-(2-bromophenyl)-5-methyl-1H-1,2,3-triazole-4-carboxamide]	100	1.8	> 92000
Cc1ccccc1-n1nnc(C(=O)Nc2ncc3ccccc3n2)c1C [YA6061, 5-Methyl-N-(quinazolin-2-yl)-1-(o-tolyl)-1H-1,2,3-triazole-4-carboxamide]		> 1000	> 92000

Compound	inhibition at 1 µM [1] [%]	IC50 [1] [nM]	CC50 [2] [nM]
Cc1ccccc1-n1nnc(C(=O)Nc2ccc3cccc(CN4CCN(C(=O)OC(C)(C)C)CC4)c3n2)c1C [YA6160, tert-Butyl 4-((2-(5-methyl-1-(o-tolyl)-1H-1,2,3-triazole-4-carboxamido)quinolin-8-yl)methyl)piperazine-1-carboxylate]		> 1000	> 92000
Cc1c(C(=O)Nc2nc3ccccc3s2)nnn1-c1ccc(F)cc1 [YA1076, N-(Benzo[d]thiazol-2-yl)-1-(4-fluorophenyl)-5-methyl-1H-1,2,3-triazole-4-carboxamide]	15	> 1000	> 92000
Cc1ccccc1-n1nnc(C(=O)Nc2ncc(-c3ccccc3)s2)c1C [YA4085, 5-Methyl-N-(5-phenylthiazol-2-yl)-1-(o-tolyl)-1H-1,2,3-triazole-4-carboxamide]	37	> 1000	> 92000
Cc1c(C(=O)Nc2nc3ccccc3s2)nnn1-c1ccc(Br)cc1 [YA1086, N-(Benzo[d]thiazol-2-yl)-1-(4-bromophenyl)-5-methyl-1H-1,2,3-triazole-4-carboxamide]	32	> 1000	> 92000
Cc1ccccc1-n1nnc(C(=O)Nc2cnc3ccccc3n2)c1C [YA6045, 5-Methyl-N-(quinoxalin-2-yl)-1-(o-tolyl)-1H-1,2,3-triazole-4-carboxamide]		1.8	> 92000
Cc1cccc(Cl)c1-n1nnc(C(=O)Nc2nc3ccccc3s2)c1C [YA1068, N-(Benzo[d]thiazol-2-yl)-1-(2-chloro-6-methylphenyl)-5-methyl-1H-1,2,3-triazole-4-carboxamide]	80	35	> 92000
Cc1ccccc1-n1ncc(C(=O)Nc2nc(-c3ccccc3)cs2)c1C [YA7015, 5-Methyl-N-(4-phenylthiazol-2-yl)-1-(o-tolyl)-1H-pyrazole-4-carboxamide]		> 1000	> 92000
Cc1ccccc1-n1nnc(C(=O)Nc2ccc3cccnc3n2)c1C [YA6047, 5-Methyl-N-(1,8-naphthyridin-2-yl)-1-(o-tolyl)-1H-1,2,3-triazole-4-carboxamide]		> 1000	> 92000
CC(C)(C)c1c(C(=O)Nc2nc3ccc(F)cc3s2)nnn1-c1ccccc1F [YA6174, 5-(Tert-butyl)-N-(6-fluorobenzo[d]thiazol-2-yl)-1-(2-fluorophenyl)-1H-1,2,3-triazole-4-carboxamide]	40	> 1000	> 92000
CCc1c(C(=O)Nc2nc3ccccc3s2)nnn1-c1ccccc1F [YA4001, N-(Benzo[d]thiazol-2-yl)-5-ethyl-1-(2-fluorophenyl)-1H-1,2,3-triazole-4-carboxamide]		0.76	> 92000
Cc1ccc(-c2csc(NC(=O)c3nnn(-c4ccccc4C)c3C)n2)cc1 [YA4141]		> 1000	> 92000
Cc1ccccc1-c1csc(NC(=O)c2nnn(-c3ccccc3C)c2C)n1 [YA4171]		> 1000	> 92000
Cc1ccccc1-n1ncc(C(=O)Nc2ncc(-c3ccccc3)s2)c1C [YA7019, 5-Methyl-N-(5-phenylthiazol-2-yl)-1-(o-tolyl)-1H-pyrazole-4-carboxamide]		> 1000	> 92000
COc1ccc2sc(NC(=O)c3nnn(-c4ccccc4C)c3C)nc2c1 [YA4045, N-(5-Methoxybenzo[d]thiazol-2-yl)-5-methyl-1-(o-tolyl)-1H-1,2,3-triazole-4-carboxamide]		> 1000	> 92000
Cc1ccccc1-n1nnc(C(=O)Nc2ccc3cc(O)ccc3n2)c1C [YA6079]		> 1000	> 92000
COc1cccc2sc(NC(=O)c3nnn(-c4ccccc4C)c3C)nc12 [YA4061, N-(4-Methoxybenzo[d]thiazol-2-yl)-5-methyl-1-(o-tolyl)-1H-1,2,3-triazole-4-carboxamide]	27	> 1000	> 92000
Cc1ccccc1-n1nnc(C(=O)Nc2nc3ccc(Cl)cc3s2)c1C [YA4071, N-(6-Chlorobenzo[d]thiazol-2-yl)-5-methyl-1-(o-tolyl)-1H-1,2,3-triazole-4-carboxamide]		67	> 92000
Cc1ccccc1-n1nnc(C(=O)Nc2nc3ccc(C(F)(F)F)cc3s2)c1C [YA4063, 5-Methyl-1-(o-tolyl)-N-(6-(trifluoromethyl)benzo[d]thiazol-2-yl)-1H-1,2,3-triazole-4-carboxamide]	24	> 1000	> 92000
Cc1ccccc1C1CCC(C(=O)Nc2nc3ccccc3s2)C1 (stereo not shown) [YA4138]		> 1000	> 92000
Cc1ccccc1-n1nnc(C(=O)Nc2nc3c(F)cccc3s2)c1C [YA4093, N-(4-Fluorobenzo[d]thiazol-2-yl)-5-methyl-1-(o-tolyl)-1H-1,2,3-triazole-4-carboxamide]	37	> 1000	> 92000
